Assay results from ChEMBL document CHEMBL1127385, “Synthesis and diuretic activity of alkyl- and arylguanidine analogs of N,N'-dicyclohexyl-4-morpholinecarboxamidine in rats and dogs” (J Med Chem, 1994).
Blank lines part the entries; values can stand above or below the molecule they belong to.

Legend:
Details in all cases: in vivo, po
Rattus norvegicus [1] = test: Total electrolytic excretion of chlorine in urine of rats after peroral administration of 259 uM/Kg of drug; type: ADME, organism-based
Rattus norvegicus [2] = test: Total electrolytic excretion of potassium in urine of rats after peroral administration of 77.5 uM/Kg of drug; type: ADME, organism-based
Rattus norvegicus [3] = test: Tested for the diuretic activity by measuring the urinary volume after peroral administering 25.9 uM/Kg of drug in rats; type: ADME, organism-based, Urine
Rattus norvegicus [4] = test: Tested for the diuretic activity by measuring the urinary volume after peroral administering 259 uM/Kg of drug in rats; type: ADME, organism-based, Urine
Rattus norvegicus [5] = test: Ratio of Total electrolytic excretion of sodium and potassium in urine of rats after peroral administration of 77.7 uM/Kg of drug; type: ADME, organism-based
Rattus norvegicus [6] = test: Total electrolytic excretion of potassium in urine of rats after peroral administration of 25.9 uM/Kg of drug; type: ADME, organism-based
Rattus norvegicus [7] = test: Ratio of Total electrolytic excretion of sodium and potassium in urine of rats after peroral administration of 25.9 uM/Kg of drug; type: ADME, organism-based
Rattus norvegicus [8] = test: Total electrolytic excretion of sodium in urine of rats after peroral administration of 77.5 uM/Kg of drug; type: ADME, organism-based
Rattus norvegicus [9] = test: Ratio of Total electrolytic excretion of sodium and potassium in urine of rats after peroral administration of 259 uM/Kg of drug; type: ADME, organism-based
Rattus norvegicus [10] = test: Tested for the diuretic activity by measuring the urinary volume after peroral administering 77.5 uM/Kg of drug in rats; type: ADME, organism-based, Urine
Rattus norvegicus [11] = test: Total electrolytic excretion of potassium in urine of rats after peroral administration of 259 uM/Kg of drug; type: ADME, organism-based
Rattus norvegicus [12] = test: Total electrolytic excretion of chlorine in urine of rats after peroral administration of 25.9 uM/Kg of drug; type: ADME, organism-based
Rattus norvegicus [13] = test: Total electrolytic excretion of chlorine in urine of rats after peroral administration of 77.5 uM/Kg of drug; type: ADME, organism-based
Rattus norvegicus [14] = test: Total electrolytic excretion of sodium in urine of rats after peroral administration of 259 uM/Kg of drug; type: ADME, organism-based
Rattus norvegicus [15] = test: Total electrolytic excretion of sodium in urine of rats after peroral administration of 25.9 uM/Kg of drug; type: ADME, organism-based
Rattus norvegicus [16] = test: Ratio of Total electrolytic excretion of sodium and potassium in urine of rats after peroral administration of 28.9 uM/Kg of drug; type: ADME, organism-based
Rattus norvegicus [17] = test: Total electrolytic excretion of sodium in urine of rats after peroral administration of 28.9 uM/Kg of drug; type: ADME, organism-based
Rattus norvegicus [18] = test: Total electrolytic excretion of chlorine in urine of rats after peroral administration of 289 uM/Kg of drug; type: ADME, organism-based
Rattus norvegicus [19] = test: Tested for the diuretic activity by measuring the urinary volume after peroral administering 86.9 uM/Kg of drug in rats; type: ADME, organism-based, Urine
Rattus norvegicus [20] = test: Tested for the diuretic activity by measuring the urinary volume after peroral administering 28.9 uM/Kg of drug in rats; type: ADME, organism-based, Urine
Rattus norvegicus [21] = test: Total electrolytic excretion of potassium in urine of rats after peroral administration of 28.9 uM/Kg of drug; type: ADME, organism-based
Rattus norvegicus [22] = test: Total electrolytic excretion of chlorine in urine of rats after peroral administration of 86.9 uM/Kg of drug; type: ADME, organism-based
Rattus norvegicus [23] = test: Total electrolytic excretion of sodium in urine of rats after peroral administration of 86.9 uM/Kg of drug; type: ADME, organism-based
Rattus norvegicus [24] = test: Total electrolytic excretion of chlorine in urine of rats after peroral administration of 28.9 uM/Kg of drug; type: ADME, organism-based
Rattus norvegicus [25] = test: Total electrolytic excretion of potassium in urine of rats after peroral administration of 86.9 uM/Kg of drug; type: ADME, organism-based
Rattus norvegicus [26] = test: Tested for the diuretic activity by measuring the urinary volume after peroral administering 289 uM/Kg of drug in rats; type: ADME, organism-based, Urine
Rattus norvegicus [27] = test: Ratio of Total electrolytic excretion of sodium and potassium in urine of rats after peroral administration of uM/Kg of drug; type: ADME, organism-based
Rattus norvegicus [28] = test: Total electrolytic excretion of sodium in urine of rats after peroral administration of 289 uM/Kg of drug; type: ADME, organism-based
Rattus norvegicus [29] = test: Ratio of Total electrolytic excretion of sodium and potassium in urine of rats after peroral administration of 86.9 uM/Kg of drug; type: ADME, organism-based
Rattus norvegicus [30] = test: Total electrolytic excretion of potassium in urine of rats after peroral administration of 289 uM/Kg of drug; type: ADME, organism-based

Excretion Cl- (Rattus norvegicus [1]): 1.05 m equiv | Excretion K+ (Rattus norvegicus [2]): 0.27 m equiv | V (Rattus norvegicus [3]): 8.7 mL | V (Rattus norvegicus [4]): 5 mL | Ratio (Rattus norvegicus [5]): 7.1 | Excretion K+ (Rattus norvegicus [6]): 0.26 m equiv | Ratio (Rattus norvegicus [7]): 5.5 | Excretion Na+ (Rattus norvegicus [8]): 1.89 m equiv | Ratio (Rattus norvegicus [9]): 7.5 | V (Rattus norvegicus [10]): 11.8 mL | Excretion K+ (Rattus norvegicus [11]): 0.16 m equiv | Excretion Cl- (Rattus norvegicus [12]): 1.5 m equiv | Excretion Cl- (Rattus norvegicus [13]): 1.99 m equiv | Excretion Na+ (Rattus norvegicus [14]): 1.17 m equiv | Excretion Na+ (Rattus norvegicus [15]): 1.45 m equiv
Structure (SMILES): C1CCCC(/N=C(/NC2CCCCCCC2)N2CCOCC2)CCC1

Ratio (Rattus norvegicus [16]): 3.7 | Excretion Na+ (Rattus norvegicus [17]): 1.32 m equiv | Excretion Cl- (Rattus norvegicus [18]): 1.51 m equiv | V (Rattus norvegicus [19]): 11.3 mL | V (Rattus norvegicus [20]): 9.1 mL | Excretion K+ (Rattus norvegicus [21]): 0.36 m equiv | Excretion Cl- (Rattus norvegicus [22]): 1.78 m equiv | Excretion Na+ (Rattus norvegicus [23]): 1.81 m equiv | Excretion Cl- (Rattus norvegicus [24]): 1.49 m equiv | Excretion K+ (Rattus norvegicus [25]): 0.32 m equiv | V (Rattus norvegicus [26]): 9.2 mL | Ratio (Rattus norvegicus [27]): 5.5 | Excretion Na+ (Rattus norvegicus [28]): 1.59 m equiv | Ratio (Rattus norvegicus [29]): 5.7 | Excretion K+ (Rattus norvegicus [30]): 0.27 m equiv
Structure (SMILES): C1CCC(/N=C(/NC2CCCCC2)N2CCSCC2)CC1
